Here are results for 14 compounds from patent US7192948B2, “Bicyclic heterocycles as HIV integrase inhibitors” (priority 2004, dated 2007).

The target of data set [1] is T1, HIV-integrase (Human immunodeficiency virus type 1 group M subtype B, UniProt P12497).
T1 construct: Recombinant integrase (0.26 ng) was incubated with the beads
The experiment in a line: HIV-Integrase Inhibition Activity (SPA bead strand transfer assay). Particulars: recombinant integrase, in vitro. Format: biochemical. Here is the method:
HIV-Integrase Inhibition Activity. To evaluate in-vitro activity against HIV-integrase, 5 pmole of biotin labeled substrate DNA was bound to 100 μg of Streptavidin coated PVT SPA beads (Amersham Pharmacia Biotech). Recombinant integrase (0.26 ng) was incubated with the beads for 90 min at 37° C. Unbound enzyme was removed by washing the complex followed by addition of inhibitors and 0.1 fmol of P33 labeled target DNA. The reaction was stopped by adding EDTA to a final concentration of […]. Samples were counted in TopCountNXT (Packard) and the CPM was used as a measure of integration. The reaction condition was as described in A. Engelman and R. Craigie, J. Virol. 69, 5908–5911 (1995). The sequences of substrate and target DNA were described in Nucleic Acid Research 22, 1121–1122 (1994).

Consider `O=C1Cn2c(nc(C(=O)NCc3ccc(Cl)c(Cl)c3)c(O)c2=O)N1` [Example 2, 6-Hydroxy-2,5-dioxo-1,2,3,5-tetrahydro-imidazo[1,2-a]pyrimidine-7-carboxylic acid 3,4-dichloro-benzylamide], for which the melting point is 280 °C (dec.). Besides, the IC50 in data set [1] is 4 to 15 nM.
The corresponding values for `Cc1cc(CNC(=O)c2nc3n(c(=O)c2O)CC(=O)N3)ccc1F` [Example 3, 6-Hydroxy-2,5-dioxo-1,2,3,5-tetrahydro-imidazo[1,2-a]pyrimidine-7-carboxylic acid 4-fluoro-3-methyl-benzylamide] are 287 °C (dec.) and 16 to 49000 nM.
The corresponding values for `O=C1Cn2c(nc(C(=O)NCc3ccc(F)c(Cl)c3)c(O)c2=O)N1` [Example 4, 6-Hydroxy-2,5-dioxo-1,2,3,5-tetrahydro-imidazo[1,2-a]pyrimidine-7-carboxylic acid 3-chloro-4-fluoro-benzylamide] are 295 °C (dec.) and 16 to 49000 nM.
For the compound `Cc1ccc(CNC(=O)c2nc3n(c(=O)c2O)CC(=O)N3)cc1C` [Example 5, 6-Hydroxy-2,5-dioxo-1,2,3,5-tetrahydro-imidazo[1,2-a]pyrimidine-7-carboxylic acid 3,4-dimethyl-benzylamide], the melting point is 287 °C (dec.). Moreover, the IC50 in data set [1] was in the range of 16 to 49000 nM.
For the compound `O=C1CCn2c(nc(C(=O)NCc3ccc(F)cc3)c(O)c2=O)N1` [Example 6, 3-Hydroxy-4,8-dioxo-6,7,8,9-tetrahydro-4H-pyrimido[1,2-a]pyrimidine-2-carboxylic acid 4-fluoro-benzylamide], the melting point is > 300 °C (dec.). Further, in data set [1], the IC50 fell in the range of 16 to 49000 nM.
As to `O=C1CCn2c(nc(C(=O)NCc3ccc(Cl)c(Cl)c3)c(O)c2=O)N1` [Example 7, 3-Hydroxy-4,8-dioxo-6,7,8,9-tetrahydro-4H-pyrimido[1,2-a]pyrimidine-2-carboxylic acid 3,4-dichloro-benzylamide], the melting point was > 300 °C (dec.). Besides, the concentration for half-maximal inhibition (IC50) in data set [1] was 4 to 15 nM.
As to `Cc1cc(CNC(=O)c2nc3n(c(=O)c2O)CCC(=O)N3)ccc1F` [Example 8, 3-Hydroxy-4,8-dioxo-6,7,8,9-tetrahydro-4H-pyrimido[1,2-a]pyrimidine-2-carboxylic acid 4-fluoro-3-methyl-benzylamide], the melting point is greater than 300 °C. Besides, in data set [1], the IC50 lay within 4 to 15 nM.
In turn, `CN1C(=O)CCn2c1nc(C(=O)NCc1ccc(F)cc1)c(O)c2=O` [Example 18, N-(4-Fluorobenzyl)-3-hydroxy-9-methyl-4,8-dioxo-6,7,8,9-tetrahydro-4H-pyrimido[1,2-a]pyrimidine-2-carboxamide] gave a melting point of 176 to 178 °C. Also, the IC50 in data set [1] was in the range of 16 to 49000 nM.
As to `CN1C(=O)CCn2c1nc(C(=O)NCc1ccc(Cl)c(Cl)c1)c(O)c2=O` [Example 19, N-(3,4-Dichlorobenzyl)-3-hydroxy-9-methyl-4,8-dioxo-6,7,8,9-tetrahydro-4H-pyrimido[1,2-a]pyrimidine-2-carboxamide], the melting point was in the range of 198 to 201 °C. In data set [1], the IC50 is 4 to 15 nM.
The corresponding values for `Cc1cc(CNC(=O)c2nc3n(c(=O)c2O)CCC(=O)N3C)ccc1F` [Example 20, N-(4-Fluoro-3-methylbenzyl)-3-hydroxy-9-methyl-4,8-dioxo-6,7,8,9-tetrahydro-4H-pyrimido[1,2-a]pyrimidine-2-carboxamide] are 216 °C and 4 to 15 nM.
The corresponding values for `CN1C(=O)CCn2c1nc(C(=O)NCc1ccc(F)c(Cl)c1)c(O)c2=O` [Example 21, N-(3-Chloro-4-fluorobenzyl)-3-hydroxy-9-methyl-4,8-dioxo-6,7,8,9-tetrahydro-4H-pyrimido[1,2-a]pyrimidine-2-carboxamide] are 201 °C and 4 to 15 nM.
For the compound `Cc1ccc(CNC(=O)c2nc3n(c(=O)c2O)CCC(=O)N3C)cc1C` [Example 22, N-(3,4-Dimethylbenzyl)-3-hydroxy-9-methyl-4,8-dioxo-6,7,8,9-tetrahydro-4H-pyrimido[1,2-a]pyrimidine-2-carboxamide], the melting point was 181 °C. In data set [1], the IC50 was 16 to 49000 nM.
As for `CC1(C)NC(=O)Cn2c1nc(C(=O)NCc1ccc(F)cc1)c(O)c2=O` [Example 45, N-(4-fluorobenzyl)-3-hydroxy-9,9-dimethyl-4,7-dioxo-6,7,8,9-tetrahydro-4H-pyrazino[1,2-a]pyrimidine-2-carboxamide], the IC50 in data set [1] lay in the range of 16 to 49000 nM.
On the same count and under the same terms, as for `O=C(NCc1ccc(F)cc1)c1nc2n(c(=O)c1O)CC(=O)N1CCC[C@@H]21` [Example 46, (S)-7-Hydroxy-4,6-dioxo-2,3,4,5,6,9b-hexahydro-1H-3a,5a,9-triaza-benz[e]indene-8-carboxylic acid 4-fluoro-benzylamide], the figure is no less than 50 nM.

For orientation: IC50 means the concentration that inhibits the measured activity by half. The melting point is the temperature, or range, at which the solid turns liquid.
